How the values were obtained:
[1] = system: L. major promastigotes; conditions: in vitro; cited from earlier work
[2] = system: L. amazonensis (MHOM/Br/79/Maria) promastigotes; assay: In vitro promastigote susceptibility assay (resazurin); assay type: cell-based; conditions: for SI (selectivity index, SI = CC50/IC50): CC50 J774 / IC50 L. amazonensis promastigotes; for IC50: Leishmania amazonensis; for IC50 / IC50 ± SD: L. amazonensis promastigotes, 48 h at 26 °C, triplicate, N/A = not active at 100 μg/mL
Method: (§1) The following species of Leishmania were used: L. donovani (MHOM/IN/80/DD8) was purchased (ATCC, USA) and L. amazonensis (MHOM/Br/79/Maria) was kindly provided by Prof. Alfredo Toraño (Instituto de Salud Carlos III, Madrid). Promastigotes were cultured in Schneider’s insect medium supplemented with 10% heat-inactivated fetal bovine serum (FBS) and 1000 U/L of penicillin plus 100 mg/L of streptomycin in 25 mL culture flasks at 26 °C. […] New samples of the compounds have been prepared according to the protocol described above, and subsequently solutions of the chemical compound to be assayed have been dissolved in DMSO at 50 mg/mL. […] Growth control and signal-to-noise control were also included. The final solvent (DMSO) concentrations never exceeded 0.5% (v/v) warranting no effect on parasite proliferation or morphology. After 48 h at 26 °C, 20 μL of a 2.5 mM resazurin solution was added to each well and the plates were returned to the incubator for another 3 h. […] Growth inhibition (%) was calculated by 100 – [(RFU treated wells – RFU signal-to-noise)/(RFU untreated – RFU signal-to-noise) × 100]. All tests were carried out in triplicate. Miltefosine (Sigma-Merck, Madrid, Spain) was used as the reference drug and was evaluated under the same conditions. […] The selectivity index (SI) was calculated as the ratio between cytotoxicity (CC50) and activity against parasites (IC50).

[3] = system: L. donovani (MHOM/IN/80/DD8) promastigotes; assay: as above; assay type: cell-based; conditions: for IC50: Leishmania donovani, L. donovani promastigotes, 48 h at 26 °C, triplicate, N/A = not active at 100 μg/mL; for SI (selectivity index, SI = CC50/IC50): CC50 J774 / IC50 L. donovani promastigotes
Method: as §1

[4] = Cytotoxicity assay on macrophages (resazurin); assay type: cell-based, BALB/c mice; conditions: mouse, J774 macrophages, values marked e correspond to 100 μg/mL, the higher dose tested
Method: The assay was carried out as previously described.[30] J774 macrophages cell lines were seeded (5 × 10^4 cells/well) in 96-well flat-bottom microplates with 100 μL of RPMI 1640 medium. The cells were allowed to attach for 24 h at 37 °C and 5% CO2, and the medium was replaced by different concentrations of the compounds in 200 μL of medium and exposed for another 24 h. Growth controls and signal-to-noise were also included. Afterward, a volume of 20 μL of 2.5 mM resazurin solution was added, and plates were returned to the incubator for another 3 h to evaluate cell viability. The reduction of resazurin was determined by fluorometry as in the promastigote assay. Each concentration was assayed three times.

[5] = system: L. amazonensis amastigotes; assay: In vitro intracellular amastigote susceptibility assay in J774 macrophages; assay type: cell-based; conditions: Leishmania amazonensis; L. amazonensis intracellular amastigotes in J774, 48 h; N/A = not active at 100 μg/mL
Method: The following species of Leishmania were used: L. donovani (MHOM/IN/80/DD8) was purchased (ATCC, USA) and L. amazonensis (MHOM/Br/79/Maria) was kindly provided by Prof. Alfredo Toraño (Instituto de Salud Carlos III, Madrid). Promastigotes were cultured in Schneider’s insect medium supplemented with 10% heat-inactivated fetal bovine serum (FBS) and 1000 U/L of penicillin plus 100 mg/L of streptomycin in 25 mL culture flasks at 26 °C. The assay was carried out as previously described.[29] Briefly, 5 × 10^4 J774 macrophages and stationary promastigotes in a 1:5 ratio were seeded in each well of a microtiter plate, suspended in 200 μL of culture medium, and incubated for 24 h at 33 °C in a 5% CO2 chamber. After this first incubation, the temperature was increased up to 37 °C for another 24 h. Thereafter, cells were washed several times in culture medium by centrifugation at 1.500g for 5 min in order to remove free non-internalized promastigotes. Finally, the supernatant was replaced by 200 μL/well of culture medium containing 2-fold serial dilutions of the test compounds as in promastigotes assay. Growth control and signal-to-noise were also included. Following incubation for 48 h at 37 °C and 5% CO2, the culture medium was replaced by 200 μL/well of the lysis solution (RPMI-1640 with 0.048% HEPES and 0.01% SDS) and incubated at room temperature for 20 min. Thereafter, the plates were centrifuged at 3.500g for 5 min and the lysis solution was replaced by 200 μL/well of Schneider’s insect medium. The culture plates were then incubated at 26 °C for another 4 days to allow transformation of viable amastigotes into promastigotes and proliferation. Afterward, 20 μL/well of 2.5 mM resazurin was added and incubated for another 3 h. Finally, fluorescence emission was measured and IC50 was estimated as described above. All tests were carried out in triplicate. Miltefosine (Sigma-Merck, Madrid, Spain) was used as the reference drug and was evaluated under the same conditions. The IC50 and SI were calculated as in the previous section.

[6] = macrophages J774, 24 h exposure, Table 2

SMILES | IC50 [1] | SI (selectivity index, SI = CC50/IC50) [2] | IC50 [2] | IC50 [3] | CC50 at 24 h [4, 6] | SI (selectivity index, SI = CC50/IC50) [3] | IC50 ± SD [2] | IC50 [5] | CC50 at 24 h ([4]; macrophages J774, Table 3 (amastigote assay table))
Cc1ccc2ncc(/C=C/C(=O)c3cc[nH]c3)cc2c1 [4a] | 1.29 µM |  |  |  |  |  |  |  | 
COc1ccc2ncc(/C=C/C(=O)c3cc[nH]c3)cc2c1 [4b] | 1.18 µM |  |  |  |  |  |  |  | 
O=C(c1ccccc1)c1cccn1-c1ncccn1 [5aa] |  | >1.55 | 260 ± 40.7 µM | > 100 µg/mL | > 401 µM |  |  |  | 
Cc1ccc(C(=O)c2cccn2-c2ncccn2)cc1 [5ab] |  |  | > 100 µg/mL | > 100 µg/mL | > 381 µM |  |  |  | 
CC(C)(C)c1ccc(C(=O)c2cccn2-c2ncccn2)cc1 [5ac] |  | >2.77 | 32.9 ± 0.74 µM | 58.5 ± 7.04 µM | 91 ± 6.55 µM | >1.55 |  |  | 
O=C(c1ccc(F)cc1)c1cccn1-c1ncccn1 [5ad] |  |  | > 100 µg/mL | > 100 µg/mL | 270 ± 26.3 µM |  | inactive |  | 
O=C(c1ccc(Cl)cc1)c1cccn1-c1ncccn1 [5ae] |  | >3.01 | 117 ± 10.9 µM | 190 ± 6.76 µM | > 352 µM | >1.86 |  |  | 
N#Cc1ccc(C(=O)c2cccn2-c2ncccn2)cc1 [5ag] |  |  | > 100 µg/mL | > 100 µg/mL | > 365 µM |  |  |  | 
O=C(c1ccc([N+](=O)[O-])cc1)c1cccn1-c1ncccn1 [5ah] |  |  | > 100 µg/mL | > 100 µg/mL | > 340 µM |  |  |  | 
O=C(c1ccc(C(F)(F)F)cc1)c1cccn1-c1ncccn1 [5ai] |  | >3.13 | 48 ± 1.61 µM | 42.8 ± 0.61 µM | 150 ± 49.4 µM | >3.51 |  |  | 
COc1cc(OC)cc(C(=O)c2cccn2-c2ncccn2)c1 [5aj] |  | >2.71 | 32.5 ± 0.64 µM | 211 ± 32.8 µM | 88.3 ± 3.36 µM | >0.42 |  |  | 
COc1cc(C(=O)c2cccn2-c2ncccn2)cc(OC)c1OC [5ak] |  |  | > 100 µg/mL | > 100 µg/mL | 87.3 ± 7.37 µM |  | inactive |  | 
COc1ccc(C(=O)c2cccn2-c2ncccn2)c(OC)c1 [5al] |  |  | > 100 µg/mL | > 100 µg/mL | 224 ± 46.9 µM |  |  |  | 
O=C(c1cc(C(F)(F)F)cc(C(F)(F)F)c1)c1cccn1-c1ncccn1 [5am] |  | >4.53 | 57.34 ± 0.25 µM | 199 ± 25.4 µM | > 260 µM | >1.31 |  |  | 
O=C(c1ccc2ccccc2c1)c1cccn1-c1ncccn1 [5an] |  | >3.12 | 36.1 ± 1.23 µM | 58.5 ± 3.34 µM | 113 ± 39.2 µM | >1.93 |  |  | 
Cc1cccnc1-n1cccc1C(=O)c1ccccc1 [5ba] |  | >2.50 | 153 ± 21.6 µM | > 100 µg/mL | > 381 µM |  |  |  | 

SMILES | IC50 [1] | SI (selectivity index, SI = CC50/IC50) [2] | IC50 [2] | IC50 [3] | CC50 at 24 h [4, 6] | SI (selectivity index, SI = CC50/IC50) [3] | IC50 ± SD [2] | IC50 [5] | CC50 at 24 h ([4]; macrophages J774, Table 3 (amastigote assay table))
Cc1ccc(C(=O)c2cccn2-c2ncccc2C)cc1 [5bb] |  | >2.43 | 149 ± 3.84 µM | 120 ± 15 µM | > 362 µM | >3.02 |  |  | 
Cc1cccnc1-n1cccc1C(=O)c1ccc(F)cc1 [5bd] |  |  | 16.9 ± 0.73 µM | 7.78 ± 0.27 µM | 137 ± 36.4 µM | >23.15 |  |  | 
Cc1cccnc1-n1cccc1C(=O)c1ccc(Cl)cc1 [5be] |  | >2.89 | 51.5 ± 4.72 µM | 20.7 ± 0.98 µM | 149 ± 19.3 µM | >7.19 |  |  | 
Cc1cccnc1-n1cccc1C(=O)c1ccc(Br)cc1 [5bf] |  | >3.14 | 38.1 ± 0.85 µM | 19.9 ± 1.47 µM | 120 ± 37.4 µM | >6.01 |  |  | 
Cc1cccnc1-n1cccc1C(=O)c1ccc(C#N)cc1 [5bg] |  | >1.81 | 192 ± 12 µM | 315 ± 60.8 µM | > 348 µM | >1.10 |  |  | 
COc1cc(OC)cc(C(=O)c2cccn2-c2ncccc2C)c1 [5bj] |  | >1.53 | 71.1 ± 7.81 µM | 43.5 ± 0.59 µM | 108 ± 5.76 µM |  |  |  | 
COc1cc(C(=O)c2cccn2-c2ncccc2C)cc(OC)c1OC [5bk] |  |  | > 100 µg/mL | > 100 µg/mL | 284 µM |  | inactive |  | 
COc1ccc(C(=O)c2cccn2-c2ncccc2C)cc1 [5bo] |  | >1.53 | 224 ± 14.7 µM | 173 ± 60.3 µM | > 342 µM | >1.98 |  |  | 
Cc1cccnc1-n1cccc1C(=O)c1cccc(OCc2ccccc2)c1 [5bp] |  | >1.31 | 208 ± 23.6 µM | 184 ± 8.67 µM | > 357 µM | >1.47 |  |  | 
Cc1cccnc1-n1cccc1C(=O)c1ccn(C(C)(C)C)c1 [5bq] |  | >1.56 | 209 ± 4.69 µM | 92.8 ± 7.68 µM | > 325 µM |  |  |  | 
Cc1cccnc1-n1cccc1C(=O)c1ccn(C)c1 [5br] |  | >1.66 | 227 ± 13.4 µM | > 100 µg/mL | > 377 µM |  |  |  | 
Cc1cccnc1-n1cccc1C(=O)c1ccoc1 [5bs] |  |  | > 100 µg/mL | > 100 µg/mL | > 396 µM |  |  |  | 
CN1CCC(c2cc(-c3ccncc3)c(-c3ccc(F)cc3)[nH]2)CC1 [compound 1] | 2.1 µM |  |  |  |  |  |  |  | 
CN1CCC(c2cc(-c3ccc(F)cc3)c(-c3ccncc3)[nH]2)CC1 [compound 2] | 0.6 µM |  |  |  |  |  |  |  | 
CCCCCCCCCCCCCCCCOP(=O)([O-])OCC[N+](C)(C)C [miltefosine, reference compound] |  |  | 30.7 ± 8.8 µM | 0.24 ± 0.02 µM | 55.4 ± 4.19 µM |  |  | 47.6 ± 7.04 µM | 136 ± 10.2 µM
